Experimental data: patent US12577255B2, “MDM2-based modulators of proteolysis and associated methods of use” (Arvinas Operations, Inc., priority 2015, dated 2026)

Key:
[1] = system: c-Jun N-terminal kinases (JNK); experiment: JNK Western blot assay (degradation); format: cell-based; settings: at 1 μM; 16 h
Method: (§1) The following biological assays were performed to evaluate the protein degradation in various cell types using representative compounds disclosed. The degradation of the following proteins were evaluated: bromodomain-containing protein 4 (BRD4), androgen receptor (AR), c-Myc, c-Jun N-terminal kinases (JNK), and enhancer of zeste homolog 2 (EZH2).
(§2) Cells were purchased from ATCC and cultured in Dulbecco's Modified Eagle's Medium (ATCC), supplemented with 10% FBS (ATCC) and Penicillin/Streptomycin (Life Technologies). […] Cells were harvested, and lysed in RIPA buffer (50 mM Tris pH8, 150 mM NaCl, 1% Tx-100, 0.1% SDS, 0.5% sodium deoxycholate) supplemented with protease and phosphatase inhibitors. Lysates were clarified at 16,000 g for 10 minutes, and protein concentration was determined. Equal amount of protein (20 μg) was subjected to SDS-PAGE analysis and followed by immunoblotting according to standard protocols.

[2] = biological target: T1, bromodomain-containing protein 4 (BRD4) (Homo sapiens, UniProt O60885); experiment: BRD4 Western blot (degradation); format: cell-based; settings: at 1 μM; VCaP cells, 16 h
T1 construct: VCaP cells were chased from ATCC and cultured in Dulbecco's Modified Eagle's Medium; host or cells: VCaP
Method: as §1
VCaP cells were chased from ATCC and cultured in Dulbecco's Modified Eagle's Medium (ATCC), supplemented with 10% FBS (ATCC) and Penicillin/Streptomycin (Life Technologies). DMSO control and compound treatments (0.03 μM to 1 μM) were performed in 12-well plates for 16 h. cells were harvested, and lysed in RIPA buffer (50 mM Tris pH8, 150 mM NaCl, 1% Tx-100, 0.1% SDS, 0.5% sodium deoxycholate) supplemented with protease and phosphatase inhibitors. Lysates were clarified at 16,000 g for 10 minutes, and protein concentration was determined. Equal amount of protein (20 μg) was subjected to SDS-PAGE analysis and followed by immunoblotting according to standard protocols. The antibodies used were BRD4 (Cell signaling #13440), and Actin (Sigma #5441). Detection reagents were Clarity Western ELC substrate (Bio-rad #170-5060).

p53 = experiment: Western blot of HCT116 cells, p53 level; format: cell-based, human; settings: Western blot (FIG. 2, FIG. 3)
MDM2 = biological target: T2, MDM2 (Homo sapiens, UniProt Q00987); experiment: Western blot of HCT116 cells, MDM2 level; format: cell-based; settings: Western blot (FIG. 2, FIG. 3)
T2 construct: Western blot of HCT116 cells treated with chimeric molecules; endogenous in cells; host or cells: HCT116
T2 sequence (Q00987 whole entry): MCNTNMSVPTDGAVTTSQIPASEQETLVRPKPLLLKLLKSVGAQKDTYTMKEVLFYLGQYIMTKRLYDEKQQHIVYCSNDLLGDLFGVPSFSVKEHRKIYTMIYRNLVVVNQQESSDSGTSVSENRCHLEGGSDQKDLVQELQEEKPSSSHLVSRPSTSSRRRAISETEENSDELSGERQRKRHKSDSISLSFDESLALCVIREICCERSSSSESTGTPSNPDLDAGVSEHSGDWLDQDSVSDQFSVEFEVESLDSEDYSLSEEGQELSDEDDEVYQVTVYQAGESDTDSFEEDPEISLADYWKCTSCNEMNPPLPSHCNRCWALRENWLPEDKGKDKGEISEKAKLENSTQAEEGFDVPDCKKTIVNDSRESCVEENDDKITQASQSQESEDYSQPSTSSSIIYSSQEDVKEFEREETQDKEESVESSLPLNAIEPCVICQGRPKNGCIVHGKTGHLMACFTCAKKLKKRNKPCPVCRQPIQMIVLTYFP

[3] = biological target: enhancer of zeste homolog 2 (EZH2) (Homo sapiens, UniProt Q15910); experiment: EZH2 Western blot assay (degradation); format: cell-based; settings: at 1 μM; 16 h
Chain of enhancer of zeste homolog 2 (EZH2) (Q15910 whole entry): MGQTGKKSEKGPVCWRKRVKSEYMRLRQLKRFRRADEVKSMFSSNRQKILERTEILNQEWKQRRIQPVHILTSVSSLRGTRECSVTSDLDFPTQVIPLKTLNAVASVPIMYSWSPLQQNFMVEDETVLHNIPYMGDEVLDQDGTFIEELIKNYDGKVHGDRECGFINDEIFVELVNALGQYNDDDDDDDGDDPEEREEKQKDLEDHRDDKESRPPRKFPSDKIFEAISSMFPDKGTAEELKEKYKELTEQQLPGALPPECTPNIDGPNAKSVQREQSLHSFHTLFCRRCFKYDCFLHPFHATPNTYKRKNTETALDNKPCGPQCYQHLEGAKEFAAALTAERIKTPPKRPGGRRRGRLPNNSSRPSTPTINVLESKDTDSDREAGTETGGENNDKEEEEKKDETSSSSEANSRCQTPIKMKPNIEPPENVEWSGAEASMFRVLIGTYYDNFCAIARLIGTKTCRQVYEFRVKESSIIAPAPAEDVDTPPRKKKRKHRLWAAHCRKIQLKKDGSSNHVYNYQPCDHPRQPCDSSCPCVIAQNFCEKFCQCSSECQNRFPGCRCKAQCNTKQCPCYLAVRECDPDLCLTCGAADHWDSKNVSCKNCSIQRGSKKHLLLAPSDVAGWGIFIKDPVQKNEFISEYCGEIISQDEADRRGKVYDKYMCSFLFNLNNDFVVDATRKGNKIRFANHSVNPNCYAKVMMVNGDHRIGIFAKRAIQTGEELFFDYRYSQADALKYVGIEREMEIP
Chain of enhancer of zeste homolog 2 (EZH2) (O75530 whole entry partner): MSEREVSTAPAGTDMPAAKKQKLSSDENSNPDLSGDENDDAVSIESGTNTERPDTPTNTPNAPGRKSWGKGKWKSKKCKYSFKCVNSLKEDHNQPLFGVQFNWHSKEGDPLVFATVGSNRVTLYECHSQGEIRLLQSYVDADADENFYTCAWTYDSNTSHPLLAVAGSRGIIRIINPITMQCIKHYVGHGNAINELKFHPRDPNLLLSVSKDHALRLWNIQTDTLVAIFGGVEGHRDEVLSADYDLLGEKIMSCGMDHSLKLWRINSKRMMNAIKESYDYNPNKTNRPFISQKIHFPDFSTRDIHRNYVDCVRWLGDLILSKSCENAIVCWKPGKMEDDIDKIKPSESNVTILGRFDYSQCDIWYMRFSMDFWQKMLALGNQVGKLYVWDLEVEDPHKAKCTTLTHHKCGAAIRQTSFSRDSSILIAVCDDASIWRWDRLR
Chain of enhancer of zeste homolog 2 (EZH2) (Q15022 whole entry partner): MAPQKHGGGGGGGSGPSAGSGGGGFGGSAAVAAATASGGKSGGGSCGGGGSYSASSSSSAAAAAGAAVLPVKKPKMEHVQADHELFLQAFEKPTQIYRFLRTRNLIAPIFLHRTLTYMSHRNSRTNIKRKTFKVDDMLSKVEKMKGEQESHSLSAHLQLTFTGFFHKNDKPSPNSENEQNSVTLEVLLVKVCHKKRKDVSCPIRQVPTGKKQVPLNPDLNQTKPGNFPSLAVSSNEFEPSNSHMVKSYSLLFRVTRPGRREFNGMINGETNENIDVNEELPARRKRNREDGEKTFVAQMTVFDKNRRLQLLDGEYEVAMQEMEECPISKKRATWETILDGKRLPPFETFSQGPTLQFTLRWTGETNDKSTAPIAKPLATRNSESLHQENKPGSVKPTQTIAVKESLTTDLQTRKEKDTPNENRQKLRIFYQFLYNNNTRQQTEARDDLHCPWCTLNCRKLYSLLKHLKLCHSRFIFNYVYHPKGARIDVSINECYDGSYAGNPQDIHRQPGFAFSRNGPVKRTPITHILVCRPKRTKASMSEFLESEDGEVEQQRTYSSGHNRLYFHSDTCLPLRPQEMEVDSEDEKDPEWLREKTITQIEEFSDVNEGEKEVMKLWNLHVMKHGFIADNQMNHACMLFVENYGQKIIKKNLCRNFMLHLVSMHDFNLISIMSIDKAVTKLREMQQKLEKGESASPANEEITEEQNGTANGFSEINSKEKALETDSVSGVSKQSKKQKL
Method: as §1, §2

Structure (SMILES) | Degradation activity BRD4 [2] | MDM2 up-regulation (MDM2) | Degradation activity EZH2 [3] | Degradation activity JNK [1] | p53 level increase (p53)
COc1cc(C(=O)NCCOCCO[C@H]2CC[C@H](Nc3nccc(-c4cnn(Cc5ccccc5)c4N(C)C)n3)CC2)ccc1NC(=O)C1N[C@@H](CC(C)(C)C)[C@](C#N)(c2ccc(Cl)cc2F)[C@H]1c1cccc(Cl)c1F (stereo partly drawn) [Compound A2720, 3-(3-chloro-2-fluorophenyl)-4-(4-chloro-2-fluorophenyl)-4-cyano-5-(2,2-dimethylpropyl)-N-(2-methoxy-4-{[2-(2-{[(1,4-trans)-4-({4-[1-benzyl-5-(dimethylamino)-1H-pyrazol-4-yl]pyrimidin-2-yl}amino)cyclohexyl]oxy}ethoxy)ethyl]carbamoyl}phenyl)pyrrolidine-2-carboxamide] | – | – | – | A (0 to 25% degradation at 1 μM) | –
COc1cc(C(=O)NCCOCCNC(=O)C[C@@H]2N=C(c3ccc(Cl)cc3)c3c(sc(C)c3C)-n3c(C)nnc32)ccc1NC(=O)[C@@H]1N[C@@H](CC(C)(C)C)[C@](C#N)(c2ccc(Cl)cc2F)[C@H]1c1cccc(Cl)c1F [Compound A1892, (2R,3S,4R,5S)-3-(3-chloro-2-fluorophenyl)-4-(4-chloro-2-fluorophenyl)-N-(4-{[2-(2-{2-[(9S)-7-(4-chlorophenyl)-4,5,13-trimethyl-3-thia-1,8,11,12-tetraazatricyclo[8.3.0.0^2,^6]-trideca-2(6),4,7,10,12-pentaen-9-yl]acetamido}ethoxy)ethyl]carbamoyl}-2-methoxyphenyl)-4-cyano-5-(2,2-dimethylpropyl)pyrrolidine-2-carboxamide] | C (larger than 50% degradation at 1 μM) | up-regulation of MDM2 | – | – | dose dependent p53 level increase
CCN(c1cc(-c2ccc(OCCOCCOCCOCCOCCOCCNC(=O)c3ccc(NC(=O)C4NC(CC(C)(C)C)C(C#N)(c5ccc(Cl)cc5F)C4c4cccc(Cl)c4F)c(OC)c3)cc2)cc(C(=O)NCc2c(C)cc(C)[nH]c2=O)c1C)C1CCOCC1 (stereo not drawn) [Compound A2844, 3-(3-chloro-2-fluorophenyl)-4-(4-chloro-2-fluorophenyl)-4-cyano-N-[4-({1-[4-(3-{[(4,6-dimethyl-2-oxo-1,2-dihydropyridin-3-yl)methyl]carbamoyl}-5-[ethyl(oxan-4-yl)amino]-4-methylphenyl)phenyl]-1,4,7,10,13,16-hexaoxaoctadecan-18-yl}carbamoyl)-2-methoxyphenyl]-5-(2,2-dimethylpropyl)pyrrolidine-2-carboxamide] | – | – | A (0 to 25% degradation at 1 μM) | – | –
COc1cc(C(=O)NCCOCCOCCOCCO[C@H]2CC[C@H](Nc3nccc(-c4cnn(Cc5ccccc5)c4N(C)C)n3)CC2)ccc1NC(=O)C1N[C@@H](CC(C)(C)C)[C@](C#N)(c2ccc(Cl)cc2F)[C@H]1c1cccc(Cl)c1F (stereo partly drawn) [Compound A2791, 3-(3-chloro-2-fluorophenyl)-4-(4-chloro-2-fluorophenyl)-4-cyano-5-(2,2-dimethylpropyl)-N-[2-methoxy-4-({1-[(1,4-trans)-4-({4-[1-benzyl-5-(dimethylamino)-1H-pyrazol-4-yl]pyrimidin-2-yl}amino)cyclohexyl]-1,4,7,10-tetraoxadodecan-12-yl}carbamoyl)phenyl]pyrrolidine-2-carboxamide] | – | – | – | A (0 to 25% degradation at 1 μM) | –
COc1ccc(C(=O)NCCOCCOCCOCCOCCO[C@H]2CC[C@H](Nc3nccc(-c4cnn(Cc5ccccc5)c4N(C)C)n3)CC2)cc1NC(=O)C1N[C@@H](CC(C)(C)C)[C@](C#N)(c2ccc(Cl)cc2F)[C@H]1c1cccc(Cl)c1F (stereo partly drawn) [Compound A2792, 3-(3-chloro-2-fluorophenyl)-4-(4-chloro-2-fluorophenyl)-4-cyano-5-(2,2-dimethylpropyl)-N-[2-methoxy-5-({1-[(1,4-trans)-4-({4-[1-benzyl-5-(dimethylamino)-1H-pyrazol-4-yl]pyrimidin-2-yl}amino)cyclohexyl]-1,4,7,10,13-pentaoxapentadecan-15-yl}carbamoyl)phenyl]pyrrolidine-2-carboxamide] | – | – | – | A (0 to 25% degradation at 1 μM) | –
COc1ccc(C(=O)NCCOCCOCCO[C@H]2CC[C@H](Nc3nccc(-c4cnn(Cc5ccccc5)c4N(C)C)n3)CC2)cc1NC(=O)C1N[C@@H](CC(C)(C)C)[C@](C#N)(c2ccc(Cl)cc2F)[C@H]1c1cccc(Cl)c1F (stereo partly drawn) [Compound A2766, 3-(3-chloro-2-fluorophenyl)-4-(4-chloro-2-fluorophenyl)-4-cyano-5-(2,2-dimethylpropyl)-N-[2-methoxy-5-({2-[2-(2-{[(1,4-trans)-4-({4-[1-benzyl-5-(dimethylamino)-1H-pyrazol-4-yl]pyrimidin-2-yl}amino)cyclohexyl]oxy}ethoxy)ethoxy]ethyl}carbamoyl)phenyl]pyrrolidine-2-carboxamide] | – | – | – | A (0 to 25% degradation at 1 μM) | –
COc1cc(C(=O)NCCOCCNC(=O)C[C@@H]2N=C(c3ccc(Cl)cc3)c3c(sc(C)c3C)-n3c(C)nnc32)ccc1NC(=O)[C@H]1N[C@H](CC(C)(C)C)[C@@](C#N)(c2ccc(Cl)cc2F)[C@@H]1c1cccc(Cl)c1F [Compound A1891, (2S,3R,4S,5R)-3-(3-chloro-2-fluorophenyl)-4-(4-chloro-2-fluorophenyl)-N-(4-{[2-(2-{2-[(9S)-7-(4-chlorophenyl)-4,5,13-trimethyl-3-thia-1,8,11,12-tetraazatricyclo[8.3.0.0^2,^6]-trideca-2(6),4,7,10,12-pentaen-9-yl]acetamido}ethoxy)ethyl]carbamoyl}-2-methoxyphenyl)-4-cyano-5-(2,2-dimethylpropyl)pyrrolidine-2-carboxamide] | A (0 to 25% degradation at 1 μM) | no MDM2 up-regulation | – | – | no p53 level increase

Now from value to compound, other results behind:

Degradation activity BRD4 [2] | MDM2 up-regulation (MDM2) | Degradation activity EZH2 [3] | Structure (SMILES) | Degradation activity JNK [1] | p53 level increase (p53)
A (0 to 25% degradation at 1 μM) | no MDM2 up-regulation | – | COc1cc(C(=O)NCCOCCOCCOCCOCCNC(=O)C[C@@H]2N=C(c3ccc(Cl)cc3)c3c(sc(C)c3C)-n3c(C)nnc32)ccc1NC(=O)[C@H]1N[C@H](CC(C)(C)C)[C@@](C#N)(c2ccc(Cl)cc2F)[C@@H]1c1cccc(Cl)c1F [Compound A1894, (2S,3R,4S,5R)-3-(3-chloro-2-fluorophenyl)-4-(4-chloro-2-fluorophenyl)-N-{4-[(14-{2-[(9S)-7-(4-chlorophenyl)-4,5,13-trimethyl-3-thia-1,8,11,12-tetraazatricyclo[8.3.0.0^2,^6]-trideca-2(6),4,7,10,12-pentaen-9-yl]acetamido}-3,6,9,12-tetraoxatetradecan-1-yl)carbamoyl]-2-methoxyphenyl}-4-cyano-5-(2,2-dimethylpropyl)pyrrolidine-2-carboxamide] | – | no p53 level increase
– | – | A (0 to 25% degradation at 1 μM) | CCN(c1cc(-c2ccc(OCCOCCOCCOCCNC(=O)c3ccc(NC(=O)C4NC(CC(C)(C)C)C(C#N)(c5ccc(Cl)cc5F)C4c4cccc(Cl)c4F)c(OC)c3)cc2)cc(C(=O)NCc2c(C)cc(C)[nH]c2=O)c1C)C1CCOCC1 (stereo not drawn) [Compound A2790, 3-(3-chloro-2-fluorophenyl)-4-(4-chloro-2-fluorophenyl)-4-cyano-N-[4-({1-[4-(3-{[(4,6-dimethyl-2-oxo-1,2-dihydropyridin-3-yl)methyl]carbamoyl}-5-[ethyl(oxan-4-yl)amino]-4-methylphenyl)phenyl]-1,4,7,10-tetraoxadodecan-12-yl}carbamoyl)-2-methoxyphenyl]-5-(2,2-dimethylpropyl)pyrrolidine-2-carboxamide] | – | –
B (25 to 50% degradation at 1 μM) | up-regulation of MDM2 | – | COc1cc(C(=O)NCCOCCOCCNC(=O)C[C@@H]2N=C(c3ccc(Cl)cc3)c3c(sc(C)c3C)-n3c(C)nnc32)ccc1NC(=O)[C@@H]1N[C@@H](CC(C)(C)C)[C@](C#N)(c2ccc(Cl)cc2F)[C@H]1c1cccc(Cl)c1F [Compound A1864, (2R,3S,4R,5S)-3-(3-chloro-2-fluorophenyl)-4-(4-chloro-2-fluorophenyl)-N-[4-({2-[2-(2-{2-[(9S)-7-(4-chlorophenyl)-4,5,13-trimethyl-3-thia-1,8,11,12-tetraazatricyclo-[8.3.0.0^2,^6]trideca-2(6),4,7,10,12-pentaen-9-yl]acetamido}ethoxy)ethoxy]ethyl}-carbamoyl)-2-methoxyphenyl]-4-cyano-5-(2,2-dimethylpropyl)pyrrolidine-2-carboxamide] | – | dose dependent p53 level increase
